# Data from patent publication US20230364069A1, “METHOD FOR TREATING NON-ALCOHOLIC STEATOHEPATITIS THROUGH CO-ADMINISTRATION OF CURCUMIN DERIVATIVE AND TGF-B RECEPTOR INHIBITOR” (UNIVERSITY INDUSTRY FOUNDATION, YONSEI UNIVERSITY WONJU …, priority 2021, published 2023).
# Experiments:
# [1] = test system: mouse hepatocyte cell lines (AML12); assay: Fat accumulation induced by oleic acid (BODIPY staining, Western blotting); type: cell-based; conditions: 500 μM oleic acid, 24 hours; for fat increased by oleic acid (BODIPY staining, adipophilin and SREBP1C Western blotting): 1 μM Cur5-8, 10 μM EW-7197, FIGS. 6 and 7
# Method: Fat accumulation was induced in hepatocytes with oleic acid, curcumin derivatives were administered, and fat synthesis and degradation were confirmed.
# Specifically, oleic acid was dissolved in 0.2% bovine serum albumin (BSA) at a concentration of 500 μM, and the cells of Example 1-1 were cultured for 24 hours and treated with the resultant, and also treated with 1 μM curcumin (Cur), 1 μM curcumin 5-8 (Cur5-8), 1 μM curcumin 4-8 (Cur4-8), and 1 μM curcumin 5-14 (Cur5-14) for the same period of time. Thereafter, BODIPY-fatty acid solution (Sigma, 1 mg/mL of stock DMSO solution was diluted with PBS 1× to obtain a final concentration of 0.2 μg/mL) was administered to cells cultured in an incubator of 5% CO2 at 37° C. and cultured for one hour. After washing with PBS 1×, stained cells were observed.
# In addition, the cells of Example 1-1 were treated with oleic acid in the same manner as described above and treated with 1 μM curcumin (Cur), 1 μM Curcumin 5-8 (Cur5-8), and 10 μM EW-7197 (EW), and then BODIPY-fatty acid staining was performed in the same manner as above. In addition, the cells were collected after treatment, and the protein expressions of adipophilin as a fat accumulation inducing factor and SREBP1C as a fat metabolism regulator in the collected cells were checked by Western blotting. To this end, Western blotting was performed by using the collected cells in the same method as described in <Example 1-3>. At this time, an anti-β-actin antibody, an anti-adipophilin antibody, and an anti-SREBP1C antibody were used as primary antibodies.
# The mouse hepatocyte cell lines were treated with oleic acid by the method described in Example 1-4 and were simultaneously treated with each of curcumin (Cur) and curcumin derivatives (Cur5-8, Cur4-8, and Cur5-14) for 24 hours, and fat was stained by BODIPY staining method. […]
# [2] = test system: mouse hepatocyte cell lines (AML12); assay: TGF-β-induced fibrosis, co-administration of curcumin derivative and EW-7197 (epithelial-mesenchymal conversion, BODIPY, α-SMA staining, Western blotting); type: cell-based; conditions: 2 ng/ml TGF-β, 24 hours, 1 μM Cur or Cur5-8, 10 μM EW-7197; for epithelial-mesenchymal conversion caused by TGF-β: FIG. 8; for liver fibrosis (α-SMA staining, fibrosis marker Western blotting): FIGS. 8, 10, 11
# Method: Fibrosis was induced in hepatocytes with TGF-β, a curcumin derivative and a TGF-β receptor inhibitor were co-administered, and then fibrosis and fat synthesis and degradation were checked.
# Specifically, 2 ng/ml of TGF-β was administered to the cells of Example 1-1, the cells were divided into administration groups of vehicle (Veh), 1 μM curcumin (Cur), 1 μM curcumin 5-8 (Cur5-8), 0.5 μM EW-7197 (EW0.5), 10 μM EW-7197 (EW or EW10), 1 μM curcumin and 0.5 μM EW-7197 (EW0.5+Cur), 1 μM curcumin and 10 μM EW-7197 (EW+Cur or EW10+Cur), 1 μM curcumin 5-8 and 0.5 μM EW-7197 (EW0.5+Cur5-8), 1 μM curcumin 5-8 and 10 μM EW-7197 (EW+Cur5-8 or EW10+Cur5-8), respective samples were administered, and culturing was performed for 24 hours. The control group (Con) was not treated with either TGF-β or the sample. […] After washing with PBS 1×, stained cells were observed.
# In addition, in order to check the degree of fibrosis of hepatocytes, the cells cultured for 24 hours were fixed with 4% paraformaldehyde and then stained by using α-SMA (Santa Cruz Biotechnology, Inc., Dallas, Texas, USA), an Alexafluor 488 (Cell Signaling Technology, Danvers, Massachusetts, USA) antibody, and DAPI (Abcam plc., Cambridge, MA, USA). The cells were mounted with a mounting solution (Fisher Scientific, Hampton, Rockingham, USA), the manufactured sample was photographed using a confocal microscope to obtain photographs of stained cells, and the degree of color development in the photographs of the stained cells was analyzed with the ImageJ program.
# In addition, in order to confirm the degree of fibrosis of hepatocytes, the cells cultured for 24 hours were collected, and protein expressions of α-SMA, Collagen I (Coll), p-SMAD2, and p-SMAD3 were checked by Western blotting with fibrosis markers in the same method as described in <Example 1-3>.
# In order to check a synergistic effect of inhibiting fibrosis caused by a TGF-β and inhibiting fat accumulation caused thereby in case of co-administration of a curcumin derivative (Cur5-8) and a TGF-β receptor inhibitor (EW-7197), epithelial-mesenchymal conversion of hepatocytes was confirmed through a cell experiment by the method described in Example 1-5, and BODIPY staining and α-SMA staining were performed. Also, protein expressions of α-SMA, Collagen I p-SMAD2, and p-SMAD3 were checked by Western blotting.
structure (smiles),measurement,setting,value
"Cc1cccc(-c2[nH]c(CNc3ccccc3F)nc2-c2ccc3ncnn3c2)n1 [EW-7197, N-(2-fluorophenyl)-5-(6-methyl-2-pyridinyl)-4-[1,2,4]triazolo[1,5-a]pyridin-6-yl-1H-imidazole-2-methanamine]","fat increased by oleic acid (BODIPY staining, adipophilin and SREBP1C Western blotting)",[1],promotes the fat increase caused by oleic acid
same,epithelial-mesenchymal conversion caused by TGF-β,[2],inhibited
same,fat accumulation / adipogenesis in cells (BODIPY staining),"[2]; FIGS. 8, 9",fat accumulation in cells was exhibited
same,"liver fibrosis (α-SMA staining, fibrosis marker Western blotting)",[2],inhibited
"COc1cc(/C=C/C(=O)c2cccc(NC(=O)C(C)C)c2)ccc1O [Cur5-8, N-{3-[(2E)-3-(4-hydroxy-3-methoxyphenyl)prop-2-enoyl]phenyl}-2-methylpropanamide]",fat increased by oleic acid (BODIPY staining),"[1]; 1 μM compound, FIGS. 4 and 5",most effectively reduced fat
same,"fat increased by oleic acid (BODIPY staining, adipophilin and SREBP1C Western blotting)",[1],reduced the fat increased by oleic acid
same,epithelial-mesenchymal conversion caused by TGF-β,[2],not inhibited
same,"liver fibrosis (α-SMA staining, fibrosis marker Western blotting)",[2],liver fibrosis was induced
